Consider four compounds from PMC11200585, “Prospects for Prostate Cancer Chemotherapy: Cytotoxic Evaluation and Mechanistic Insights of Quinolinequinones with ADME/PK Profile” (Biomedicines, 2024).

One series relates to NCI-H522. The series can be described thus: NCI-60 five-dose assay (non-small cell lung cancer). In kind it is cell-based, human. Conditions: 48 h, SRB; for GI50 / LC50: Homo sapiens.
The subject of the next series is MDA-MB-231 cells. The series can be described thus: MTT assay. In kind it is cell-based. The conditions noted are these: Homo sapiens, 24 h, mean ± SEM. As for the experimental part: (§1) For the MTT assay, DU-145, MDA-MB-231, HCT-116, and HUVEC cells (American Type Culture Collection) were seeded at a concentration of 1 × 10^4 cells per well in 96-well plates and allowed to incubate overnight, ensuring proper adherence. Subsequently, a series of concentrations for both AQQ1 and AQQ2 (ranging from 1 to 100 µM) were added to the culture medium with a final concentration of 1% DMSO, and cells were subjected to an additional 24 h incubation period. The control group only received 1% DMSO (Biomatik, Cambridge, ON, Canada). To establish a baseline for comparison, DOXO (Saba, İstanbul, Turkey), a known chemotherapeutic agent, was administered at equivalent concentrations. Following the incubation period, MTT (3-(4,5-dimethylthiazol-2-yl)-2,5-diphenyltetrazolium bromide) (Biomatik, Canada) assay was carried out to assess cell viability. Finally, the absorbance was quantified at 590 nm using a BioTek Epoc plate reader (Biotek, Winooski, VT, USA). The derived data were analysed using GraphPad Prism 8 software to calculate the inhibitory concentration 50 (IC50) values of the test compounds.

For another series, the system named is HCT-116 cells. As to the kind of experiment: MTT assay. The conditions noted are these: Homo sapiens, 24 h, mean ± SEM. In kind it is cell-based. As for the experimental part:
as §1

The test system of the next series is DU-145 cells. The series can be described thus: MTT assay. In kind it is cell-based. Conditions: Homo sapiens, 24 h, mean ± SEM. On the procedure: as §1
In series [1] the test system is Human Umbilical Vein Endothelial Cells (HUVEC). The series can be described thus: MTT assay. In kind it is cell-based. The conditions noted are these: 24 h, mean ± SEM. As for the experimental part: as §1
Series [2] is described as follows: In vitro metabolic stability. The conditions noted are these: for % Metabolism in 30 min: 0.5 µM, 0.5 mg/mL protein; for half-life at 0.5 µM / microsomal CLint at 0.5 µM: pH 7.4. In kind it is in vitro ADME. As for the experimental part:
(§2) S2. ADME and PK Profiling
(§3) S2.1. In vitro Metabolic Stability Study […]
(§4) metabolic stability of AQQ1 and AQQ2. A final protein (liver microsomal) concentration of 0.5 mg/mL and final test substance (AQQ1 and AQQ2) concentration of 0.5 µM were used for the study. To the respective microsomes at a volume of 12.5 µL in the well, 2.5 µL of test substance ([…] in acetonitrile: dimethyl sulfoxide, 96:4) in the presence and absence of NADPH (50 µL, 10 mM) were added and the final volume made up to 500 µL with sodium phosphate buffer (50 mM, pH 7.4). The one without NADPH served as control. Sampling (50 µL) were done at the following time points: 0, 5, 10, 15, and 30 min for sample and at 0 and 30 min for control.
(§5) Acetonitrile (150 µL) was used as quenching solvent, internal standard (Rolipram) was added, vortexed/centrifuged and the aliquot from the supernatant was analyzed using LC-MS/MS. All the experiments were performed in duplicate.

Series [3] can be described thus: Log P (experimental, n-octanol). In kind it is physicochemical.
The subject of a further series is CCRF-CEM. The series can be described thus: NCI-60 five-dose assay (leukemia). In kind it is cell-based, human. Conditions: 48 h, SRB; for GI50 / LC50 (concentration killing 50% of cells): Homo sapiens.
The next series concerns NCI-H23. As to the kind of experiment: NCI-60 five-dose assay (non-small cell lung cancer). In kind it is cell-based, human. Conditions: 48 h, SRB; for GI50 / CC50: Homo sapiens; for CC50: read-out: LC50 (the source's name).
A short description of series [4]: In vitro metabolic stability. In kind it is in vitro ADME, dog (Beagle). The conditions noted are these: Dog liver microsomes; for % Metabolism in 30 min: 0.5 µM, 0.5 mg/mL protein; for half-life at 0.5 µM / microsomal CLint at 0.5 µM: male, Beagle, pH 7.4. On the procedure:
as §2, §3, §4, §5

As to `COc1ccccc1NC1=C(Cl)C(=O)c2nc(C)ccc2C1=O` [AQQ1], the total growth inhibition concentration (TGI) is 3.36 µM in the series on NCI-H522, 8.21 µM in the series on CCRF-CEM and 3.30 µM in the series with NCI-H23. Further, the GI50 in the series on NCI-H522 came to 1.81 µM; in the series on CCRF-CEM, 1.94 µM; with NCI-H23 it was 1.47 µM. Moreover, the LC50 with NCI-H522 stood at 6.24 µM. For the same compound, the IC50 in the series on MDA-MB-231 cells turned out to be 8.27 ± 0.91 µM; in the series with HCT-116 cells, 5.83 ± 0.76 µM; with DU-145 cells, 4.18 ± 0.73 µM; in series [1], 5.39 ± 0.73 µM. Besides, the “% Metabolism in 30 min” value amounted to 39.5% in series [2] (Human liver microsomes), 63% in series [2] (Mouse liver microsomes) and 41.5% in series [4]. The values for the half-life at 0.5 µM in series [2] (Human liver microsomes), in series [2] (Mouse liver microsomes) and in [4] were over 30 min, 20.5 min and 31 min, respectively. For the same compound, the microsomal CLint at 0.5 µM in series [2] (Human liver microsomes) came out at 39 µL/min/mg; in [2] (Mouse liver microsomes), 68.5 µL/min/mg; in series [4], 45 µL/min/mg. Besides, the logP in [3] turned out to be 1.85. In addition, the LC50 (concentration killing 50% of cells) with CCRF-CEM was over 100 µM. Moreover, in the series with NCI-H23, the CC50 came to 7.45 µM.
On to `CCOc1ccccc1NC1=C(Cl)C(=O)c2nc(C)ccc2C1=O` [AQQ2], for which the TGI in the series with NCI-H522 is 3.28 µM; in the series on CCRF-CEM it was over 100 µM; in the series on NCI-H23 it was 3.55 µM. The figures for the GI50 with NCI-H522, in the series on CCRF-CEM and in the series on NCI-H23 were 1.74 µM, 1.41 µM and 1.44 µM, respectively. Moreover, in the series on NCI-H522, the median lethal concentration (LC50) worked out at 6.18 µM. The IC50 is 13.3 ± 1.12 µM in the series with MDA-MB-231 cells, 9.18 ± 0.96 µM in the series with HCT-116 cells, 4.17 ± 0.8 µM in the series with DU-145 cells and 6.39 ± 0.8 µM in series [1]. Moreover, the results for the “% Metabolism in 30 min” value in [2] (Human liver microsomes), in [2] (Mouse liver microsomes) and in series [4] were 47%, 96.5% and 79.5%, respectively. Moreover, the half-life at 0.5 µM was 26.5 min in [2] (Human liver microsomes), 5.5 min in [2] (Mouse liver microsomes) and 17 min in [4]. In addition, the microsomal CLint at 0.5 µM was found to be 52 µL/min/mg in series [2] (Human liver microsomes), 249 µL/min/mg in [2] (Mouse liver microsomes) and 84 µL/min/mg in series [4]. In series [3], this compound came in with a logP of 1.77. Also, the LC50 (concentration killing 50% of cells) in the series on CCRF-CEM is over 100 µM. Further, the CC50 with NCI-H23 worked out at 8.71 µM.
For the compound `COc1cc(NC2=C(Cl)C(=O)c3nc(C)ccc3C2=O)cc(OC)c1` [AQQ5], in the series on NCI-H522, the TGI was 3.06 µM, halving of growth (GI50) required 1.56 µM and the LC50 was determined as 6.02 µM. Besides, in the series on CCRF-CEM, halving of growth (GI50) required 2.23 µM and the LC50 (concentration killing 50% of cells) is over 100 µM. Moreover, in the series with NCI-H23, the TGI was found to be 3.15 µM, halving of growth (GI50) required 1.53 µM and the CC50 stood at 6.49 µM.
In the case of `CCOc1ccc(NC2=C(Cl)C(=O)c3nc(C)ccc3C2=O)cc1` [AQQ3], in the series on NCI-H522, the TGI was 3.22 µM, the GI50 came to 1.75 µM and the LC50 was 5.94 µM. In the series on CCRF-CEM, this compound registered a concentration for total growth inhibition (TGI) of over 100 µM, a GI50 of 2.11 µM and an LC50 (concentration killing 50% of cells) of over 100 µM. Also, in the series on NCI-H23, the concentration for total growth inhibition (TGI) is given as 2.85 µM, halving of growth (GI50) required 1.35 µM and the CC50 worked out at 6.03 µM.
